Laboratory results from patent publication US11597739B2, “Enhancing CD8+ T cells for adoptive T cell therapy by inhibiting PTPN1 (PTP1B) and PTPN2 (TC-PTP)” (The Royal Institution for the Advancement of …, priority 2017, dated 2023).

Molecular target: TC-PTP (Homo sapiens (Human), UniProt P17706)
Experiment: Enzyme assay for TC-PTP
Format: biochemical
Conditions: inhibition of TC-PTP enzymatic activity
Procedure: 1) Enzyme Assay for TC-PTP
The assay was carried out at room temperature in 96 well plates. The reaction mixture in 170 μl contained 50 mM Bis-Tris (pH=6.3), 2 mM EDTA, 5 mM N,N′-dimethyl-N,N′bis(mercaptoacetyl)hydrazine (DMH) and 10 μM fluorescein diphosphare (FDP) or 6,8-difluoro-4-methylumbelliferyl phosphate (DiFMUP). 10 μl of 10 concentrations (serial dilution) of the test compound (inhibitor) dissolved in DMSO or DMSO alone for control was added to each well and the plate was mixed for 2 min. The reaction was initiated by adding 20 μl of diluted TC-PTP (50 nM for FDP, 0.5 nM for DiFMUP in 50 mM Bis/Tris (pH=6.3), 2 mM EDTA, 5 mM DMH, 20% glycerol and 0.01% Triton X-100. The phosphatase activity was followed by monitoring the appearance of the fluorescent product fluorescein monophosphate (FMP) or 6,8-difluoro-7-hydroxyl-4-coumarin (DiFMU) continuously for 15-30 min, using the Spectromax Gemini fluorescent plate reader ([…]) with excitation of 440 nm and emission at 530 nm (cutoff filter at 525 nm) for FDP and excitation at 360 nm and emission at 450 nm (cutoff filter at 435 nm) for DiFMUP. All the assays were done at least in duplicate. The initial rate of FMP or DiFMU formation is plotted against the concentration of inhibitor and the data was fitted to 4-parameter equation and the inflection point of the fit is the IC50.

Chain of TC-PTP (P17706 whole entry, species assumed): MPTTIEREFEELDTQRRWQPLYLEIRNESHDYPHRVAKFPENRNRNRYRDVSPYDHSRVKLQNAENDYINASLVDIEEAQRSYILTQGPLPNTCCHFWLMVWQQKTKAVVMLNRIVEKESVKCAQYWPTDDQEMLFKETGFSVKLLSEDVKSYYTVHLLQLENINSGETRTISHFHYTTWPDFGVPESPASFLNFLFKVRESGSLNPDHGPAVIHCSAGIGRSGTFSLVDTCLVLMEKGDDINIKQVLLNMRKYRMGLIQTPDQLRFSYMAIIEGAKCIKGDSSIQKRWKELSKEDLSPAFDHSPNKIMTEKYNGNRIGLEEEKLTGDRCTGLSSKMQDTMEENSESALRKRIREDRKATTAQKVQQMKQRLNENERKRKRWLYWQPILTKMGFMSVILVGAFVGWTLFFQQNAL

“[(3-BROMO-7-CYANO-2-NAPHTHYL)(DIFLUORO)METHYL]PHOSPHONATE [Ex. 10]” gave an IC50 of 490 nM.
